This passage reports Kd results from PMC12247293 (Journal of Translational Medicine, 2025).

The target in the test is STAT3 (Homo sapiens, UniProt P40763). Description: SPR. The test is classed as binding.
STAT3, sequence (P40763 2-770): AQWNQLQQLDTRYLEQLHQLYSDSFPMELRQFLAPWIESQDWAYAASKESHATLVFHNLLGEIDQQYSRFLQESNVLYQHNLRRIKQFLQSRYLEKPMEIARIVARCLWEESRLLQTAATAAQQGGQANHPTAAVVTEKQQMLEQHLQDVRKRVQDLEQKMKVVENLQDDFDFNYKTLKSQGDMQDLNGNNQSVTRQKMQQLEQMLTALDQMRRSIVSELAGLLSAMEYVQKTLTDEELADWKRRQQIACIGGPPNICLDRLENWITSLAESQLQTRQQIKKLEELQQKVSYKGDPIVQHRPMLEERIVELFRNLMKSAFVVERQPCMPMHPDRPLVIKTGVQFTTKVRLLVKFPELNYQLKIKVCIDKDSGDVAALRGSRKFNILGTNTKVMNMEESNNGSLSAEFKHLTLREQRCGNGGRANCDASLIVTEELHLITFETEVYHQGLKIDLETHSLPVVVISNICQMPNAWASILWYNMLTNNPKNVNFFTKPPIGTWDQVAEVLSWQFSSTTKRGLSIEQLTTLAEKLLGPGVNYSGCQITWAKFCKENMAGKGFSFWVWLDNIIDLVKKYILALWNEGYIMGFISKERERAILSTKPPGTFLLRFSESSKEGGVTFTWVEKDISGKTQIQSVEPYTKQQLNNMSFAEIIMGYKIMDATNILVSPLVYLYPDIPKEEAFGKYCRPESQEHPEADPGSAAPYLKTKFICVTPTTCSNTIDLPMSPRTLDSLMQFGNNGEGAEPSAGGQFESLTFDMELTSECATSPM

In turn, `Fc1ccc(-n2cc(CCCCN3CCC4(CC3)OCc3ccccc34)c3ccccc32)cc1` [Siramesine] had a Kd of 871 µM.

Usually Kd stands for the free concentration of one partner at which half of the binding sites on the other are occupied at equilibrium, for simple one-to-one binding. High values mean weaker binding, low ones tighter binding.
